Results on four compounds are retold here after paper PMC7689835 (Journal of Clinical Pharmacology, 2020).

For series [1] the following is noted: cited from earlier work.
Series [2] can be described thus: Population PK model of AC886. The series is classed as in vivo, human.
Series [3] is described as follows: Observed plasma PK in clinical studies. The following applies: for geometric mean ratio of AC886 AUC0-24,ss to quizartinib AUC0-24,ss: noncompartmental analysis. The series is classed as in vivo, human.
Series [4] addresses FLT3 kinase. The note with it: read-out: dissociation constant (Kd); cited from earlier work.
Series [5] is described as follows: Population PK model of quizartinib. The series is classed as in vivo, human.
For series [6] the following is noted: cited from earlier work. The source holds these as a separate data set.
Setting [7] is: before relative F1 for patients was incorporated into the model.
The mark [8] stands for this setting: interoccasion variability, occasion 1.
The mark [9] stands for this setting: interoccasion variability, occasion 2.
The mark [10] stands for this setting: interoccasion variability, occasion 3.
[11] abbreviates: interoccasion variability, occasion 4.

Molecules are shown by their SMILES.

Regarding `CO[C@@H]1[C@H](N(C)C(=O)c2ccccc2)C[C@H]2O[C@]1(C)n1c3ccccc3c3c4c(c5c6ccccc6n2c5c31)C(=O)NC4` [midostaurin], in series [1], the “decrease in exposure with CYP3A4 induction by rifampicin” value is recorded as > 10 fold and the “increase in exposure with CYP3A inhibition by ketoconazole” value is reported as > 10 fold.
Turning to `CC(C)(CO)c1cc(NC(=O)Nc2ccc(-c3cn4c(n3)sc3cc(OCCN5CCOCC5)ccc34)cc2)no1` [AC886], the “FMET (fraction of quizartinib converted to AC886)” value in series [2] (FIXED, based on AUC ratio in phase 2 study) was found to be 0.500. The “effect of mild or moderate hepatic impairment on PK” value in series [2] (based on baseline liver function values) is on record as “no effect”. Besides, in series [2] (final estimate), the “Magnitude of interindividual variability in Vcm” value is 117% CV. Besides, in series [2] (final model), the “increase in CLm with concomitant strong CYP3A inhibitor use” value came to 10.6% and the “increase in Vcm with concomitant strong CYP3A inhibitor use” value was 192%. Moreover, in series [2] (healthy volunteers), the “IIV in CLm in healthy volunteers” value was determined as 45.9% CV. Besides, the “IIV in CLm in patients” value in series [2] (patients with AML) came to 64.1% CV. For the same compound, in series [2] (population mean), the “CLm (apparent clearance for metabolite)” value amounted to 4.09 L/h, the “CLm (fractional change in CLm for race black)” value came to 0.586, the “CLm (fractional change in CLm for strong CYP3A inhibitors)” value is given as 0.106 and the “CLm (power of BSA in CLm)” value is 1.60. For the same compound, in series [2] (population mean), the “Vcm (fractional change in Vcm for strong CYP3A inhibitors)” value turned out to be 1.92. In series [3] (patients from the QuANTUM-R study, multiple daily doses), the median accumulation ratio is given as 8.4. Moreover, in series [3] (study 2689-CL-2004, 30-mg cohort), the “geometric mean ratio of AC886 AUC0-24,ss to quizartinib AUC0-24,ss” value came to 0.544. In addition, in series [3] (study 2689-CL-2004, 60-mg cohort), the “geometric mean ratio of AC886 AUC0-24,ss to quizartinib AUC0-24,ss” value is given as 0.485. The Kd in series [4] is 1.1 nM.
With `CCc1nc(C(N)=O)c(Nc2ccc(N3CCC(N4CCN(C)CC4)CC3)c(OC)c2)nc1NC1CCOCC1` [gilteritinib], in series [1], the “increase in exposure with strong CYP3A inhibitor itraconazole” value is recorded as “approximately 2.2 fold”. Moreover, in series [1] (versus gilteritinib alone), the “decrease in exposure with strong CYP3A4 inducer rifampin” value is on record as 30%.
As to `CC(C)(C)c1cc(NC(=O)Nc2ccc(-c3cn4c(n3)sc3cc(OCCN5CCOCC5)ccc34)cc2)no1` [quizartinib], the Tmax in series [3] (human, plasma, oral, observed Tmax, patients with AML) is ~2 h. Also, in series [5] (setting [7]), the “increase in CL in patients with AML (initial characterization)” value was determined as 75%, the “increase in Vc in patients with AML (initial characterization)” value came to 36% and the “increase in Vp1 in patients with AML (initial characterization)” value amounted to 102%. The “effect of eGFR on quizartinib CL” value in series [5] (covariate test and sensitivity analysis) is given as “No significant effect”. In addition, in series [5] (final estimate), the “Magnitude of interindividual variability in ALAG1” value is on record as 62.0% CV, the “Magnitude of interindividual variability in CL” value is recorded as 55.1% CV, the “Magnitude of interindividual variability in D1” value was 69.3% CV and the “Magnitude of interindividual variability in F1” value is given as 34.8% CV. Besides, in series [5] (final estimate), the “Magnitude of interindividual variability in Ka” value is 38.5% CV, the “Magnitude of interindividual variability in Q1” value was 24.8% CV, the “Magnitude of interindividual variability in Vc” value is recorded as 27.6% CV and the “Magnitude of interindividual variability in Vp1” value was 39.7% CV. For the same compound, in series [5] (final model), the “decrease in CL with strong CYP3A inhibitor use” value turned out to be 44.1%, the “increase in CL for patients with AML versus healthy volunteers” value was determined as 8.2%, the “increase in F1 with strong CYP3A inhibitor use” value turned out to be 13.6% and the “reduction in bioavailability for patients with AML versus healthy volunteers” value came to 40.1%. The same compound gave a Vd in series [5] (human, plasma, oral) of 194 L. Also, in series [5] (setting [8]), the “IOV in CL on occasion 1” value is 40.9% CV, the “IOV in F1 on occasion 1” value turned out to be 22.6% CV and the “IOV in Vc on occasion 1” value came out at 20.3% CV. Besides, in series [5] (setting [9]), the “IOV in CL on occasion 2” value is given as 40.9% CV and the “IOV in Vc on occasion 2” value is recorded as 20.3% CV. In series [5] (setting [10]), the “IOV in CL on occasion 3” value was 40.9% CV, the “IOV in F1 on occasion 3” value is reported as 22.6% CV and the “IOV in Vc on occasion 3” value came out at 20.3% CV. In addition, in series [5] (setting [11]), the “IOV in CL on occasion 4” value was found to be 40.9% CV and the “IOV in Vc on occasion 4” value was determined as 20.3% CV. Moreover, in series [5] (population mean), the “ALAG1 (absorption lag time)” value stood at 0.205 h, the “CL (apparent clearance for parent)” value was 2.77 L/h, the “D1 (duration of zero-order input to depot compartment)” value came to 0.708 h and the “F1 (fractional change in F1 for strong CYP3A inhibitors)” value came out at 0.136. In series [5] (population mean), the “F1 (fractional change in study 019 F1 for fed)” value came out at 0.0509, the “Q1 (exponent for BSA on Q1)” value worked out at 0.970, the “Vc (exponent of [ALB/4.1] for Vc)” value is on record as −0.725 and the “Vc (exponent of [BSA/1.9] for Vc)” value was determined as 1.46. In addition, in series [5] (population mean), the “Vp1 (exponent for BSA on Vp1)” value was found to be 1.50 and the “Vp1 (exponent for age on Vp1)” value is listed as 0.453. Further, the “Ka (first-order absorption constant for healthy participants)” value in series [5] (population mean, healthy participants) amounted to 0.874 h⁻¹. Further, the “Ka (first-order absorption constant for patients)” value in series [5] (population mean, patients with AML) is 1.68 h⁻¹. Also, the “Ka (fractional change in Ka for fed status [019 only])” value in series [5] (population mean, study AC220-019, fed vs fasted) is reported as −0.512. For the same compound, in series [5] (study AC220-019), the “decrease in ka under fed versus fasted conditions” value amounted to 51.2% and the “increase in F1 under fed versus fasted conditions” value was 5.1%. In series [6] (drug-drug interaction study with ketoconazole or fluconazole), the “increase in quizartinib exposure by strong CYP3A inhibitors” value was “approximately 2 fold”. Besides, the “effect of lansoprazole on bioavailability” value in series [6] (phase 1 study) was “did not result in a meaningful change”.
